As usually defined, the Kd is the constant that tells how readily two partners part at equilibrium. Low readings indicate higher affinity, high ones lower affinity.

Here are results for 11 molecules from patent US20260297134A1, “CYCLIC PEPTIDES AS PET IMAGING AGENTS OF GRANZYME B” (Merck Sharp & Dohme LLC, priority 2023, published 2026).

Each structure is given as a SMILES string. Bridge positions count the residues as written; N and C are the ends. Square brackets hold non-standard residues; d marks the D form. Peptide text beside a SMILES is read from it. * marks the point of attachment. X1 = O=C(O)CN1CCN(CC(=O)O)CC(Cc2ccc(NC(=S)*)cc2)N(CC(=O)O)CC1; NMeF = CN[C@@H](Cc1ccccc1)C(=O)O; NMeA = CN[C@@H](C)C(=O)O; Propionyl = CCC(=O)*

Chain of human Granzyme B (hGranzyme B) (P10144 21-247): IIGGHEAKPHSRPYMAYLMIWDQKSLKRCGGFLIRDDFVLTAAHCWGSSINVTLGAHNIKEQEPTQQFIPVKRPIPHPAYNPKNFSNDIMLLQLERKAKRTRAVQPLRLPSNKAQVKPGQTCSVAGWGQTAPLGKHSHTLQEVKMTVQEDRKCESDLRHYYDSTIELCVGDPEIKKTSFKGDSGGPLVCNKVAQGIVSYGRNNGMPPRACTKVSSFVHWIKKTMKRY

The assay concerns the target human Granzyme B (hGranzyme B) (Homo sapiens, UniProt P10144). The assay can be described thus: Surface Plasmon Resonance (SPR) binding to human Granzyme B. Conditions: Table 8, 25° C. On the procedure:
All reagents and solvents were purchased from commercial sources and used “as is” unless otherwise noted. Reaction progress and synthetic intermediate analysis were assessed by LCMS (UV detection with ESI, APCI, or other mass detection) when applicable using a MeCN/water gradient with either TFA, formic acid, or NH4HCO3 modifier. Silica gel and reverse-phase flash column chromatography were conducted with commercially available pre-packed columns. Reverse-phase preparative HPLC purification was performed on preparative HPLC instruments with UV and MS detection using a MeCN/water gradient with either TFA, formic acid, or NH4OH modifier. Unless otherwise noted, all KD data presented in tables refers to the surface plasmon resonance assay that is described in the Biological Assay section.
The kinetics of test peptide binding to human Granzyme B (hGranzyme B) was determined by SPR. All experiments were performed at 25° C. using the Biacore 8k+ instrument (Cytiva, Marlborough, MA). The Biacore 8k+ Insight Evaluation Software Version 3.0 was used to fit the data with a 1:1 binding model to determine the association rate constant ka (M^−1s^−1, where “M” equals molar and “s” equals seconds) and the dissociation rate constant kd (s^−1). These rate constants were used to calculate the equilibrium dissociation constant, KD (M)=kd/ka. To measure the binding kinetics of peptides of interest, surfaces were prepared by a capture method to a Series S Streptavidin (SA) chip using a 1×HBS-EP+ running buffer (Cytiva). hGranzyme B was diluted to 10 μg/mL in 1×HBS-EP+ and flowed over spot 2 of each flow cell on the chip at a flow rate of 10 μl/min for 20 s to achieve a level of capture of ~1100 RU. An unmodified spot 1 of each flow cell was used as a matrix binding control or reference surface. Binding kinetics were measured using single cycle kinetics at 25° C. by injecting 5 concentrations with 3-fold serial dilutions of test peptides from […] to 1 μM. Compound dilutions were performed manually in a running buffer containing 1×HBS-EP+(Cytiva), and a final concentration of 2% DMSO. The interaction analyses over hGranzyme B, were performed using a 120 s association time and a 900 s dissociation time. All experiments were conducted at a flow rate of […] with a data collection rate of 10 Hz.
Peptide dilution series included 2 zero concentration points (no compound) which were averaged and subtracted from the peptide concentration injection as DMSO control responses. Binding data acquired from the reference surface (matrix binding control) were subtracted from the binding data for hGranzyme B surface on the chip to determine specific binding. Next, the association phase data were solvent corrected to account for any signal fluctuation throughout the experiment due to subtle DMSO concentration differences. Corrected response data were analyzed using the Biacore 8k+ Evaluation Software Version 3.0 according to the manufacturer. SPR data for representative compounds of the disclosure are found in Table 8.
As to `CC(C)[C@@H]1NC(=O)[C@H](CC(=O)O)NC(=O)[C@H](Cc2ccc(O)cc2)NC(=O)[C@H](Cc2ccc(O)cc2)NC(=O)[C@H](Cc2ccccc2)N(C)C(=O)[C@H](Cc2ccccc2)N(C)C(=O)[C@H](Cc2ccccc2)NC(=O)CSC[C@@H](C(=O)NCC(N)=O)NC(=O)[C@H](Cc2c[nH]cn2)NC(=O)[C@H](Cc2ccccc2)N(C)C(=O)[C@H](Cc2ccc(O)cc2)NC(=O)[C@H](C(C)C)NC(=O)[C@H](CC(=O)O)NC(=O)[C@H](C)NC(=O)[C@H](CC(=O)O)NC1=O` [Compound 16a, *F.NMeF.NMeF.Y.Y.D.V.D.A.D.V.Y.NMeF.H.*C.G-NH2] ({CH2CO}-F[NMeF][NMeF]YYDVDADVY[NMeF]HCG-NH2; thioether N-15), the affinity, expressed as Kd, was 4.7 nM.
Molecule `CC(C)[C@@H]1NC(=O)[C@H](CC(=O)O)NC(=O)[C@H](C(C)C)NC(=O)[C@H](CC(=O)O)NC(=O)[C@H](C(C)C)NC(=O)[C@H](CC(=O)O)NC(=O)[C@H](Cc2ccc(O)cc2)NC(=O)[C@H](Cc2ccc(O)cc2)NC(=O)[C@H](Cc2ccccc2)N(C)C(=O)[C@H](Cc2ccccc2)N(C)C(=O)[C@H](Cc2ccccc2)NC(=O)CSC[C@@H](C(=O)NCC(N)=O)NC(=O)[C@H](Cc2c[nH]cn2)NC(=O)[C@H](Cc2ccccc2)N(C)C(=O)[C@H](C)NC1=O` [Compound 21a, *F.NMeF.NMeF.Y.Y.D.V.D.V.D.V.A.NMeF.H.*C.G-NH2] ({CH2CO}-F[NMeF][NMeF]YYDVDVDVA[NMeF]HCG-NH2; thioether N-15) registered a Kd of 453 nM.
Molecule `CC(C)[C@@H]1NC(=O)[C@H](CC(=O)O)NC(=O)[C@H](Cc2ccc(O)cc2)NC(=O)[C@H](Cc2ccc(O)cc2)NC(=O)[C@H](Cc2ccccc2)N(C)C(=O)[C@H](Cc2ccccc2)N(C)C(=O)[C@H](Cc2ccccc2)NC(=O)CSC[C@@H](C(=O)NCC(=O)NCC(=O)N[C@@H](CCCCNC(=S)Nc2ccc(CC3CN(CC(=O)O)CCN(CC(=O)O)CCN3CC(=O)O)cc2)C(N)=O)NC(=O)[C@H](Cc2c[nH]cn2)NC(=O)[C@H](Cc2ccccc2)N(C)C(=O)[C@H](Cc2ccc(O)cc2)NC(=O)[C@H](C(C)C)NC(=O)[C@H](CC(=O)O)NC(=O)[C@H](C)NC(=O)[C@H](CC(=O)O)NC1=O` (some centres unmarked) [Compound 8a, *F.NMeF.NMeF.Y.Y.D.V.D.A.D.V.Y.NMeF.H.*C.G.G.K(NOTA)-NH2] ({CH2CO}-F[NMeF][NMeF]YYDVDADVY[NMeF]HCGGK(X1)-NH2; thioether N-15) had a Kd of 3.7 nM.
Take `CC(C)[C@@H]1NC(=O)[C@H](CC(=O)O)NC(=O)[C@H](Cc2ccc(O)cc2)NC(=O)[C@H](Cc2ccc(O)cc2)NC(=O)[C@H](Cc2ccccc2)N(C)C(=O)[C@H](Cc2ccccc2)N(C)C(=O)[C@H](C)NC(=O)CSC[C@@H](C(=O)NCC(N)=O)NC(=O)[C@H](Cc2c[nH]cn2)NC(=O)[C@H](Cc2ccccc2)N(C)C(=O)[C@H](Cc2ccc(O)cc2)NC(=O)[C@H](C(C)C)NC(=O)[C@H](CC(=O)O)NC(=O)[C@H](C(C)C)NC(=O)[C@H](CC(=O)O)NC1=O` [Compound 19a, *A.NMeF.NMeF.Y.Y.D.V.D.V.D.V.Y.NMeF.H.*C.G-NH2] ({CH2CO}-A[NMeF][NMeF]YYDVDVDVY[NMeF]HCG-NH2; thioether N-15): the equilibrium dissociation constant (Kd) was 165 nM.
The same measure for `CC(C)[C@@H]1NC(=O)[C@H](CC(=O)O)NC(=O)[C@H](Cc2ccc(O)cc2)NC(=O)[C@H](Cc2ccc(O)cc2)NC(=O)[C@H](Cc2ccccc2)N(C)C(=O)[C@H](C)N(C)C(=O)[C@H](Cc2ccccc2)NC(=O)CSC[C@@H](C(=O)NCC(N)=O)NC(=O)[C@H](Cc2c[nH]cn2)NC(=O)[C@H](Cc2ccccc2)N(C)C(=O)[C@H](Cc2ccc(O)cc2)NC(=O)[C@H](C(C)C)NC(=O)[C@H](CC(=O)O)NC(=O)[C@H](C(C)C)NC(=O)[C@H](CC(=O)O)NC1=O` [Compound 25a, *F.NMeA.NMeF.Y.Y.D.V.D.V.D.V.Y.NMeF.H.*C.G-NH2] ({CH2CO}-F[NMeA][NMeF]YYDVDVDVY[NMeF]HCG-NH2; thioether N-15): 199 nM.
The same measure for `CC(C)[C@@H]1NC(=O)[C@H](CC(=O)O)NC(=O)[C@H](Cc2ccc(O)cc2)NC(=O)[C@H](Cc2ccc(O)cc2)NC(=O)[C@H](C)NC(=O)[C@H](Cc2ccccc2)N(C)C(=O)[C@H](Cc2ccccc2)NC(=O)CSC[C@@H](C(=O)NCC(=O)NCC(=O)N[C@@H](CCCCN)C(N)=O)NC(=O)[C@H](Cc2c[nH]cn2)NC(=O)[C@H](Cc2ccccc2)N(C)C(=O)[C@H](Cc2ccc(O)cc2)NC(=O)[C@H](C(C)C)NC(=O)[C@H](CC(=O)O)NC(=O)[C@H](C(C)C)NC(=O)[C@H](CC(=O)O)NC1=O` [Compound 9a, *F.NMeF.A.Y.Y.D.V.D.V.D.V.Y.NMeF.H.*C.G.G.K-NH2] ({CH2CO}-F[NMeF]AYYDVDVDVY[NMeF]HCGGK-NH2; thioether N-15): 188 nM.
The same measure for `CC(C)[C@@H]1NC(=O)[C@H](C)NC(=O)[C@H](C(C)C)NC(=O)[C@H](CC(=O)O)NC(=O)[C@H](Cc2ccc(O)cc2)NC(=O)[C@H](Cc2ccc(O)cc2)NC(=O)[C@H](Cc2ccccc2)N(C)C(=O)[C@H](Cc2ccccc2)N(C)C(=O)[C@H](Cc2ccccc2)NC(=O)CSC[C@@H](C(=O)NCC(N)=O)NC(=O)[C@H](Cc2c[nH]cn2)NC(=O)[C@H](Cc2ccccc2)N(C)C(=O)[C@H](Cc2ccc(O)cc2)NC(=O)[C@H](C(C)C)NC(=O)[C@H](CC(=O)O)NC1=O` [Compound 22a, *F.NMeF.NMeF.Y.Y.D.V.A.V.D.V.Y.NMeF.H.*C.G-NH2] ({CH2CO}-F[NMeF][NMeF]YYDVAVDVY[NMeF]HCG-NH2; thioether N-15): 548 nM; for `CCC(=O)NCCCC[C@H](NC(=O)CNC(=O)CNC(=O)[C@@H]1CSCC(=O)N[C@@H](Cc2ccccc2)C(=O)N(C)[C@@H](Cc2ccccc2)C(=O)N(C)[C@@H](Cc2ccccc2)C(=O)N[C@@H](Cc2ccc(O)cc2)C(=O)N[C@@H](Cc2ccc(O)cc2)C(=O)N[C@@H](CC(=O)O)C(=O)N[C@@H](C(C)C)C(=O)N[C@@H](CC(=O)O)C(=O)N[C@@H](C(C)C)C(=O)N[C@@H](CC(=O)O)C(=O)N[C@@H](C(C)C)C(=O)N[C@@H](Cc2ccc(O)cc2)C(=O)N(C)[C@@H](Cc2ccccc2)C(=O)N[C@@H](Cc2c[nH]cn2)C(=O)N1)C(N)=O` [Compound 4a, *F.NMeF.NMeF.Y.Y.D.V.D.V.D.V.Y.NMeF.H.*C.G.G.K(Prop)-NH2] ({CH2CO}-F[NMeF][NMeF]YYDVDVDVY[NMeF]HCGGK(Propionyl)-NH2; thioether N-15): 1.1 nM; for `CC(C)[C@@H]1NC(=O)[C@H](CC(=O)O)NC(=O)[C@H](C(C)C)NC(=O)[C@H](CC(=O)O)NC(=O)[C@H](Cc2ccc(O)cc2)NC(=O)[C@H](Cc2ccc(O)cc2)NC(=O)[C@H](Cc2ccccc2)N(C)C(=O)[C@H](Cc2ccccc2)N(C)C(=O)[C@H](Cc2ccccc2)NC(=O)CSC[C@@H](C(=O)NCC(N)=O)NC(=O)[C@H](Cc2c[nH]cn2)NC(=O)[C@H](Cc2ccccc2)N(C)C(=O)[C@H](Cc2ccc(O)cc2)NC(=O)[C@H](C)NC(=O)[C@H](CC(=O)O)NC1=O` [Compound 17a, *F.NMeF.NMeF.Y.Y.D.V.D.V.D.A.Y.NMeF.H.*C.G-NH2] ({CH2CO}-F[NMeF][NMeF]YYDVDVDAY[NMeF]HCG-NH2; thioether N-15): 10.7 nM.
`CC(C)[C@@H]1NC(=O)[C@H](CC(=O)O)NC(=O)[C@H](Cc2ccc(O)cc2)NC(=O)[C@H](Cc2ccc(O)cc2)NC(=O)[C@H](Cc2ccccc2)N(C)C(=O)[C@H](Cc2ccccc2)N(C)C(=O)[C@H](Cc2ccccc2)NC(=O)CSC[C@@H](C(=O)NCC(N)=O)NC(=O)[C@H](C)NC(=O)[C@H](Cc2ccccc2)N(C)C(=O)[C@H](Cc2ccc(O)cc2)NC(=O)[C@H](C(C)C)NC(=O)[C@H](CC(=O)O)NC(=O)[C@H](C(C)C)NC(=O)[C@H](CC(=O)O)NC1=O` [Compound 14a, *F.NMeF.NMeF.Y.Y.D.V.D.V.D.V.Y.NMeF.A.*C.G-NH2] ({CH2CO}-F[NMeF][NMeF]YYDVDVDVY[NMeF]ACG-NH2; thioether N-15): binding was put at a Kd of 0.8 nM.
Next, `CC(C)[C@@H]1NC(=O)[C@H](CC(=O)O)NC(=O)[C@H](C)NC(=O)[C@H](Cc2ccc(O)cc2)NC(=O)[C@H](Cc2ccccc2)N(C)C(=O)[C@H](Cc2ccccc2)N(C)C(=O)[C@H](Cc2ccccc2)NC(=O)CSC[C@@H](C(=O)NCC(N)=O)NC(=O)[C@H](Cc2c[nH]cn2)NC(=O)[C@H](Cc2ccccc2)N(C)C(=O)[C@H](Cc2ccc(O)cc2)NC(=O)[C@H](C(C)C)NC(=O)[C@H](CC(=O)O)NC(=O)[C@H](C(C)C)NC(=O)[C@H](CC(=O)O)NC1=O` [Compound 15a, *F.NMeF.NMeF.Y.A.D.V.D.V.D.V.Y.NMeF.H.*C.G-NH2] ({CH2CO}-F[NMeF][NMeF]YADVDVDVY[NMeF]HCG-NH2; thioether N-15): 0.8 nM.
